We go through 49 molecules from publication PMC11995724, “Antibiotic target discovery by integrated phenotypic and activity-based profiling of electrophilic fragments” (Cell chemical biology, 2025).

Molecules are shown by their SMILES.

The nature of the data set: in vitro. As to conditions: human, hek293t cells.
In the case of `C=CC(=O)NCC1(c2nc(-c3ccccc3)cs2)CCOCC1` [2-A11, N-{[4-(4-phenyl-1,3-thiazol-2-yl)oxan-4-yl]methyl}prop-2-enamide], the viability at 48 h, 25 µM came to 93.1%.
With `C=CC(=O)N1CCC(C(=O)Nc2n[nH]c3cc(C#N)c(C)cc23)CC1` [3-J18, N-(6-cyano-5-methyl-1H-indazol-3-yl)-1-(prop-2-enoyl)piperidine-4-carboxamide] the figure was 90.3%; with `C=CC(=O)N(Cc1ccc(-n2cncn2)cc1)C1CC1` [3-J11, N-cyclopropyl-N-{[4-(1H-1,2,4-triazol-1-yl)phenyl]methyl}prop-2-enamide], 40.7%; with `CC(Cl)C(=O)NC1(c2nnc[nH]2)CCC1` (stereo not shown) [6-F21, 2-chloro-N-[1-(4H-1,2,4-triazol-3-yl)cyclobutyl]propanamide], 87.6%.
As to `C=CC(=O)N1CCn2c(cnc2C(F)(F)F)C1` [3-B16, 1-[3-(trifluoromethyl)-5H,6H,7H,8H-imidazo[1,5-a]pyrazin-7-yl]prop-2-en-1-one], the viability at 48 h, 25 µM worked out at 81.8%.
For `CC(Cl)C(=O)N1Cc2ccccc2OC(C)(C)C1` (stereo not shown) [6-H19, 2-chloro-1-(2,2-dimethyl-2,3,4,5-tetrahydro-1,4-benzoxazepin-4-yl)propan-1-one], the viability at 48 h, 25 µM worked out at 91%.
Consider `C=CC(=O)NCc1ccc(C(=O)N2CCC(C(C)(C)O)CC2)cc1` [2-J20, N-({4-[4-(2-hydroxypropan-2-yl)piperidine-1-carbonyl]phenyl}methyl)prop-2-enamide], for which the viability at 48 h, 25 µM came to 74.2%.
With `CCCCNC(=O)C(C#N)=Cc1cc(F)ccc1F` [8-K08, N-butyl-2-cyano-3-(2,5-difluorophenyl)prop-2-enamide] the figure was 39.8%; with `N#CC(=Cc1ccco1)C(=O)NCc1nc(-c2ccncc2)cs1` [9-B20, 2-cyano-3-(furan-2-yl)-N-{[4-(pyridin-4-yl)-1,3-thiazol-2-yl]methyl}prop-2-enamide], 109%; with `N#CC(C(=O)CCl)=C1NC2=C(CCc3ccccc32)S1` [10-N10, 4-chloro-2-{1H,2H,4H,5H-naphtho[1,2-d][1,3]thiazol-2-ylidene}-3-oxobutanenitrile], 12.3%.
Regarding `N#CC(C(=O)Nc1ccc2c(c1)OCCO2)=C1N=C(N)c2ccccc21` [8-L03, 2-(3-amino-1H-isoindol-1-ylidene)-2-cyano-N-(2,3-dihydro-1,4-benzodioxin-6-yl)acetamide], the viability at 48 h, 25 µM is 83.5%.
With `N#CC(=CC=Cc1ccccc1[N+](=O)[O-])C(N)=O` [8-F19, 2-cyano-5-(2-nitrophenyl)penta-2,4-dienamide] the figure was 1.55%; with `C/C(O)=C(\C#N)C(=O)Nc1ccc(-c2ccccc2Cl)cc1` [9-P22, (2Z)-N-{2'-chloro-[1,1'-biphenyl]-4-yl}-2-cyano-3-hydroxybut-2-enamide], 107%.
With `C=CC(=O)N1CCOC(c2ccccc2)C1` (stereo not shown) [2-I07, 1-(2-phenylmorpholin-4-yl)prop-2-en-1-one] the figure was 118%; with `O=C(CCl)NCc1cn[nH]c1C(F)F` [7-D05, 2-chloro-N-{[5-(difluoromethyl)-1H-pyrazol-4-yl]methyl}acetamide], 0.404%; with `CCCn1c(C)cc(C=C(C#N)C(=O)N2CCCCC2)c1C` [9-D11, 3-(2,5-dimethyl-1-propyl-1H-pyrrol-3-yl)-2-(piperidine-1-carbonyl)prop-2-enenitrile], 106%.
With `CN(C)c1ccc(C=C(C#N)C(=O)Nc2ccccc2C(=O)O)cc1` [9-I08, 2-{2-cyano-3-[4-(dimethylamino)phenyl]prop-2-enamido}benzoic acid] the figure was 95.5%; with `COc1ccccc1N=Nc1ccc(NC(=O)CCl)cc1C` [6-J06, 2-chloro-N-{4-[2-(2-methoxyphenyl)diazen-1-yl]-3-methylphenyl}acetamide], 0.765%.
On to `C=CC(=O)NCCC1=CCCCCC1` [1-P21, N-[2-(cyclohept-1-en-1-yl)ethyl]prop-2-enamide], for which the viability at 48 h, 25 µM is 93.5%.
As for `O=C(CCl)NC(Cc1cccc(O)c1)c1ccccc1` (stereo not shown) [7-N20, 2-chloro-N-[2-(3-hydroxyphenyl)-1-phenylethyl]acetamide], the viability at 48 h, 25 µM was found to be 0.777%.
To `C=CC(=O)NCc1ncnn1-c1ccccc1` [3-H11, N-[(1-phenyl-1H-1,2,4-triazol-5-yl)methyl]prop-2-enamide] belongs 63.1%; to `Cc1c(NC(=O)CCl)cccc1[N+](=O)[O-]` [4-E07, 2-chloro-N-(2-methyl-3-nitrophenyl)acetamide], 1.23%.
With `CNC(=O)C(C#N)=Cc1cccc(C)c1C` [9-D14, 2-cyano-3-(2,3-dimethylphenyl)-N-methylprop-2-enamide] the figure was 112%.
`CC1CCN(C(=O)CCl)c2cc(C(F)(F)F)ccc2S1` (stereo not shown) [5-J07, 2-chloro-1-[2-methyl-7-(trifluoromethyl)-2,3,4,5-tetrahydro-1,5-benzothiazepin-5-yl]ethan-1-one]: the viability at 48 h, 25 µM stood at 0.306%.
With `C=CC(=O)Nc1ccc2occc2c1` [3-H14, N-(1-benzofuran-5-yl)prop-2-enamide] the figure was 99.9%; with `COc1ccc(OC)c(C(C)NC(=O)CCl)c1` (stereo not shown) [4-M19, 2-chloro-N-[1-(2,5-dimethoxyphenyl)ethyl]acetamide], 1.13%.
To `O=C(CCl)NCc1ccccc1SC(F)(F)F` [7-N12, 2-chloro-N-({2-[(trifluoromethyl)sulfanyl]phenyl}methyl)acetamide] belongs 0.794%; to `C=CC(=O)Nc1cnn2cc(C)cnc12` [1-G19, N-{6-methylpyrazolo[1,5-a]pyrimidin-3-yl}prop-2-enamide], 96.4%; to `Cc1ccc(NC(=O)NC(=O)C(C)Cl)c(C)c1` (stereo not shown) [6-J04, 3-(2-chloropropanoyl)-1-(2,4-dimethylphenyl)urea], 96.6%.
To `CC(Cl)C(=O)N1CCOCC1c1cccn1C` (stereo not shown) [7-A09, 2-chloro-1-[3-(1-methyl-1H-pyrrol-2-yl)morpholin-4-yl]propan-1-one] belongs 82%; to `CC(Cl)C(=O)NC(C)C(=O)N1CCc2ccccc21` (stereo not shown) [7-M21, 2-chloro-N-[1-(2,3-dihydro-1H-indol-1-yl)-1-oxopropan-2-yl]propanamide], 84.1%; to `O=C(CCl)NC(c1ccccc1)c1ccc(Cl)cc1` (stereo not shown) [4-G04, 2-chloro-N-[(4-chlorophenyl)(phenyl)methyl]acetamide], -0.0119%.
With `CC1CN(C(=O)c2ccc(NC(=O)C(C)Cl)cc2)CC(C)O1` (stereo not shown) [7-E22, 2-chloro-N-[4-(2,6-dimethylmorpholine-4-carbonyl)phenyl]propanamide], the viability at 48 h, 25 µM was determined as 79.1%.
`Cc1cc(C2(NC(=O)C(C)Cl)CCOCC2)on1` (stereo not shown) [7-O13, 2-chloro-N-[4-(3-methyl-1,2-oxazol-5-yl)oxan-4-yl]propanamide]: the viability at 48 h, 25 µM came to 95.5%.
Turning to `C=CC(=O)Nc1ccc2nc(O)n(C3CC3)c2c1` [2-K16, N-(1-cyclopropyl-2-hydroxy-1H-1,3-benzodiazol-6-yl)prop-2-enamide], the viability at 48 h, 25 µM is 83.3%.
With `O=C(CCl)N(Cc1ccco1)C12CC3CC(CC(C3)C1)C2` [4-J18, N-(adamantan-1-yl)-2-chloro-N-[(furan-2-yl)methyl]acetamide] the figure was 1.5%; with `Cc1cc(C(=O)CCl)c(C)n1-c1ccc2c(c1)OCO2` [10-K14, 1-[1-(1,3-dioxaindan-5-yl)-2,5-dimethyl-1H-pyrrol-3-yl]-2-chloroethan-1-one], 22.4%; with `Cc1ccc(NC(=O)C(C#N)=Cc2ccccc2OC(F)F)cc1` [9-D05, 2-cyano-3-[2-(difluoromethoxy)phenyl]-N-(4-methylphenyl)prop-2-enamide], 96.9%.
With `Cc1nc(C(NC(=O)CCl)c2ccccc2)no1` (stereo not shown) [7-F08, 2-chloro-N-[(5-methyl-1,2,4-oxadiazol-3-yl)(phenyl)methyl]acetamide] the figure was 1.04%; with `CNC(=O)C(C#N)=Cc1ccc(F)cc1` [9-B14, 2-cyano-3-(4-fluorophenyl)-N-methylprop-2-enamide], 109%; with `CC(Oc1cccc(F)c1F)C(=O)N1CCN(C(=O)CCl)CC1` (stereo not shown) [5-H03, 1-[4-(2-chloroacetyl)piperazin-1-yl]-2-(2,3-difluorophenoxy)propan-1-one], 1.67%.
On to `O=C(CCl)NC1CCCc2cn(C3CCCC3)nc21` (stereo not shown) [5-O09, 2-chloro-N-(2-cyclopentyl-4,5,6,7-tetrahydro-2H-indazol-7-yl)acetamide], for which the viability at 48 h, 25 µM was found to be 20.7%.
Regarding `C=CC(=O)Nc1c(C)ccn2ncnc12` [2-M08, N-{7-methyl-[1,2,4]triazolo[1,5-a]pyridin-8-yl}prop-2-enamide], the viability at 48 h, 25 µM is 92%.
Turning to `CC(Cl)C(=O)N(c1ccccc1)C1CCOC1` (stereo not shown) [7-G14, 2-chloro-N-(oxolan-3-yl)-N-phenylpropanamide], the viability at 48 h, 25 µM was 64.4%.
Consider `C=CC(=O)N1CCOC(c2ccccc2Cl)C1` (stereo not shown) [1-P20, 1-[2-(2-chlorophenyl)morpholin-4-yl]prop-2-en-1-one], for which the viability at 48 h, 25 µM worked out at 72.7%.
With `C=CC(=O)N(CC)CC(=O)N1CCn2c(nc(C)c2C)C1` [2-B18, N-(2-{2,3-dimethyl-5H,6H,7H,8H-imidazo[1,2-a]pyrazin-7-yl}-2-oxoethyl)-N-ethylprop-2-enamide], the viability at 48 h, 25 µM is 94.8%.
To `CC(Cl)C(=O)NCC1CN(c2nncs2)CCO1` (stereo not shown) [7-O03, 2-chloro-N-{[4-(1,3,4-thiadiazol-2-yl)morpholin-2-yl]methyl}propanamide] belongs 106%.
Consider `CC(Cl)C(=O)Nc1ccc2oc(=O)n(CCN(C)C)c2c1` (stereo not shown) [5-L19, 2-chloro-N-{3-[2-(dimethylamino)ethyl]-2-oxo-2,3-dihydro-1,3-benzoxazol-5-yl}propanamide], for which the viability at 48 h, 25 µM is 109%.
With `Cc1ccc(C)c(NC(=O)CN(C)C(=O)CCl)c1` [6-N04, 2-chloro-N-{[(2,5-dimethylphenyl)carbamoyl]methyl}-N-methylacetamide] the figure was 0.906%.

Broadly, the viability is a read-out of living cells in per cent, often relative to untreated cells.
